Measurements taken from patent US9771334B2, “Triketone compound and preparation method and use thereof” (SHANDONG CYNDA CHEMICAL CO., LTD., priority 2013, dated 2017).

Experiments:
Assay in all cases: Herbicidal activity, pot culture method (primary and secondary screening test)
Format in all cases: in vivo
Conditions in all cases: primary screening, pot culture, 150 g/ha, sprayed at 3-leaf stage, result 15 days later
abutilon theophrasti = tested on: abutilon theophrasti
How it was run: (§1)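 Inhibition ratio (%) was scored 15 days after post-emergence spraying of 3-leaf-stage weeds grown in pots of soil:seedling matrix (1:2). Dose was 150 g/ha from a 0.2 g/L DMF/water solution applied by spray tower. The secondary screening used the same method at a reduced dose.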

amaranthus retroflexus = tested on: amaranthus retroflexus
How it was run: as §1

digitaria sanguinalis = tested on: digitaria sanguinalis
How it was run: as §1

echinochloa crusgalli = tested on: echinochloa crusgalli
How it was run: as §1

eclipta prostrata = tested on: eclipta prostrata
How it was run: as §1

setaria viridis = tested on: setaria viridis
How it was run: as §1

## C#CCn1c(=O)n(-c2ccccc2C)c(=O)c2cc(C(=O)C3=C(O)CCCC3=O)ccc21 [Compound 77]
Abutilon theophrasti
  herbicidal activity inhibition ratio (%), Abutilon theophrasti: 90%
Amaranthus retroflexus
  herbicidal activity inhibition ratio (%), Amaranthus retroflexus: 90%
Digitaria sanguinalis
  herbicidal activity inhibition ratio (%), Digitaria sanguinalis: 0%
Echinochloa crusgalli
  herbicidal activity inhibition ratio (%), Echinochloa crusgalli: 50%
Eclipta prostrata
  herbicidal activity inhibition ratio (%), Eclipta prostrata: 35%
Setaria viridis
  herbicidal activity inhibition ratio (%), Setaria viridis: 20%

## C#CCn1c(=O)n(-c2ccccc2C)c(=O)c2cc(C(=O)C3=C(O)CC(C)(C)CC3=O)ccc21 [Compound 78]
Abutilon theophrasti
  herbicidal activity inhibition ratio (%), Abutilon theophrasti: 0%
Amaranthus retroflexus
  herbicidal activity inhibition ratio (%), Amaranthus retroflexus: 0%
Digitaria sanguinalis
  herbicidal activity inhibition ratio (%), Digitaria sanguinalis: 0%
Echinochloa crusgalli
  herbicidal activity inhibition ratio (%), Echinochloa crusgalli: 0%
Eclipta prostrata
  herbicidal activity inhibition ratio (%), Eclipta prostrata: 0%
Setaria viridis
  herbicidal activity inhibition ratio (%), Setaria viridis: 10%

## Cc1ccccc1-n1c(=O)c2cc(C(=O)C3=C(O)CCCC3=O)ccc2n(Cc2ccccc2)c1=O [Compound 79]
Abutilon theophrasti
  herbicidal activity inhibition ratio (%), Abutilon theophrasti: 0%
Amaranthus retroflexus
  herbicidal activity inhibition ratio (%), Amaranthus retroflexus: 0%
Digitaria sanguinalis
  herbicidal activity inhibition ratio (%), Digitaria sanguinalis: 0%
Echinochloa crusgalli
  herbicidal activity inhibition ratio (%), Echinochloa crusgalli: 0%
Eclipta prostrata
  herbicidal activity inhibition ratio (%), Eclipta prostrata: 0%
Setaria viridis
  herbicidal activity inhibition ratio (%), Setaria viridis: 10%

## Cc1ccccc1-n1c(=O)c2cc(C(=O)C3=C(O)CC(C)(C)CC3=O)ccc2n(Cc2ccccc2)c1=O [Compound 80]
Abutilon theophrasti
  herbicidal activity inhibition ratio (%), Abutilon theophrasti: 0%
Amaranthus retroflexus
  herbicidal activity inhibition ratio (%), Amaranthus retroflexus: 0%
Digitaria sanguinalis
  herbicidal activity inhibition ratio (%), Digitaria sanguinalis: 0%
Echinochloa crusgalli
  herbicidal activity inhibition ratio (%), Echinochloa crusgalli: 0%
Eclipta prostrata
  herbicidal activity inhibition ratio (%), Eclipta prostrata: 0%
Setaria viridis
  herbicidal activity inhibition ratio (%), Setaria viridis: 10%

## COc1cccc(Cn2c(=O)n(-c3ccccc3C)c(=O)c3cc(C(=O)C4=C(O)CC(C)(C)CC4=O)ccc32)c1 [Compound 81]
Abutilon theophrasti
  herbicidal activity inhibition ratio (%), Abutilon theophrasti: 0%
Amaranthus retroflexus
  herbicidal activity inhibition ratio (%), Amaranthus retroflexus: 0%
Digitaria sanguinalis
  herbicidal activity inhibition ratio (%), Digitaria sanguinalis: 0%
Echinochloa crusgalli
  herbicidal activity inhibition ratio (%), Echinochloa crusgalli: 0%
Eclipta prostrata
  herbicidal activity inhibition ratio (%), Eclipta prostrata: 0%
Setaria viridis
  herbicidal activity inhibition ratio (%), Setaria viridis: 10%

## Cc1ccccc1-n1c(=O)c2c(C)c(C(=O)C3=C(O)CCCC3=O)ccc2n(C)c1=O [Compound 82]
Abutilon theophrasti
  herbicidal activity inhibition ratio (%), Abutilon theophrasti: 100%
Amaranthus retroflexus
  herbicidal activity inhibition ratio (%), Amaranthus retroflexus: 100%
Digitaria sanguinalis
  herbicidal activity inhibition ratio (%), Digitaria sanguinalis: 100%
Echinochloa crusgalli
  herbicidal activity inhibition ratio (%), Echinochloa crusgalli: 100%
Eclipta prostrata
  herbicidal activity inhibition ratio (%), Eclipta prostrata: 100%
Setaria viridis
  herbicidal activity inhibition ratio (%), Setaria viridis: 100%

## Cc1ccccc1-n1c(=O)c2cc(C(=O)C3=C(O)CCCC3=O)ccc2n(Cc2ccccc2F)c1=O [Compound 83]
Abutilon theophrasti
  herbicidal activity inhibition ratio (%), Abutilon theophrasti: 0%
Amaranthus retroflexus
  herbicidal activity inhibition ratio (%), Amaranthus retroflexus: 0%
Digitaria sanguinalis
  herbicidal activity inhibition ratio (%), Digitaria sanguinalis: 30%
Echinochloa crusgalli
  herbicidal activity inhibition ratio (%), Echinochloa crusgalli: 50%
Eclipta prostrata
  herbicidal activity inhibition ratio (%), Eclipta prostrata: 90%
Setaria viridis
  herbicidal activity inhibition ratio (%), Setaria viridis: 50%

## COc1cccc(Cn2c(=O)n(-c3ccccc3C)c(=O)c3cc(C(=O)C4=C(O)CCCC4=O)ccc32)c1 [Compound 84]
Abutilon theophrasti
  herbicidal activity inhibition ratio (%), Abutilon theophrasti: 0%
Amaranthus retroflexus
  herbicidal activity inhibition ratio (%), Amaranthus retroflexus: 0%
Digitaria sanguinalis
  herbicidal activity inhibition ratio (%), Digitaria sanguinalis: 25%
Echinochloa crusgalli
  herbicidal activity inhibition ratio (%), Echinochloa crusgalli: 50%
Eclipta prostrata
  herbicidal activity inhibition ratio (%), Eclipta prostrata: 80%
Setaria viridis
  herbicidal activity inhibition ratio (%), Setaria viridis: 10%

## Cc1ccccc1-n1c(=O)c2cc(C(=O)C3=C(O)CC(C)(C)CC3=O)ccc2n(Cc2ccccc2F)c1=O [Compound 85]
Abutilon theophrasti
  herbicidal activity inhibition ratio (%), Abutilon theophrasti: 0%
Amaranthus retroflexus
  herbicidal activity inhibition ratio (%), Amaranthus retroflexus: 20%
Digitaria sanguinalis
  herbicidal activity inhibition ratio (%), Digitaria sanguinalis: 0%
Echinochloa crusgalli
  herbicidal activity inhibition ratio (%), Echinochloa crusgalli: 20%
Eclipta prostrata
  herbicidal activity inhibition ratio (%), Eclipta prostrata: 0%
Setaria viridis
  herbicidal activity inhibition ratio (%), Setaria viridis: 10%

## Cc1ccccc1-n1c(=O)c2cc(C(=O)C3=C(O)CCCC3=O)ccc2n(C)c1=S [Compound 86]
Abutilon theophrasti
  herbicidal activity inhibition ratio (%), Abutilon theophrasti: 20%
Amaranthus retroflexus
  herbicidal activity inhibition ratio (%), Amaranthus retroflexus: 0%
Digitaria sanguinalis
  herbicidal activity inhibition ratio (%), Digitaria sanguinalis: 30%
Echinochloa crusgalli
  herbicidal activity inhibition ratio (%), Echinochloa crusgalli: 85%
Eclipta prostrata
  herbicidal activity inhibition ratio (%), Eclipta prostrata: 30%
Setaria viridis
  herbicidal activity inhibition ratio (%), Setaria viridis: 10%

## Cc1ccccc1-n1c(=O)c2cc(C(=O)C3=C(O)CC(C)(C)CC3=O)ccc2n(C)c1=S [Compound 87, 6-[(2-hydroxy-4,4-dimethyl-6-oxo-1-cyclohexenyl)carbonyl]-1-methyl-2-thio-3-(o-tolyl)-2,3-dihydroxyquinazoline-4(1H)-ketone]
Abutilon theophrasti
  herbicidal activity inhibition ratio (%), Abutilon theophrasti: 0%
Amaranthus retroflexus
  herbicidal activity inhibition ratio (%), Amaranthus retroflexus: 0%
Digitaria sanguinalis
  herbicidal activity inhibition ratio (%), Digitaria sanguinalis: 0%
Echinochloa crusgalli
  herbicidal activity inhibition ratio (%), Echinochloa crusgalli: 25%
Eclipta prostrata
  herbicidal activity inhibition ratio (%), Eclipta prostrata: 0%
Setaria viridis
  herbicidal activity inhibition ratio (%), Setaria viridis: 10%

## COc1ccccc1-n1c(=O)c2c(C)c(C(=O)C3=C(O)CCCC3=O)ccc2n(C)c1=O [Compound 88]
Abutilon theophrasti
  herbicidal activity inhibition ratio (%), Abutilon theophrasti: 100%
Amaranthus retroflexus
  herbicidal activity inhibition ratio (%), Amaranthus retroflexus: 100%
Digitaria sanguinalis
  herbicidal activity inhibition ratio (%), Digitaria sanguinalis: 100%
Echinochloa crusgalli
  herbicidal activity inhibition ratio (%), Echinochloa crusgalli: 100%
Eclipta prostrata
  herbicidal activity inhibition ratio (%), Eclipta prostrata: 100%
Setaria viridis
  herbicidal activity inhibition ratio (%), Setaria viridis: 100%

## CCc1ccccc1-n1c(=O)c2cc(C(=O)C3=C(O)CC(C)(C)CC3=O)ccc2n(C)c1=O [Compound 89]
Abutilon theophrasti
  herbicidal activity inhibition ratio (%), Abutilon theophrasti: 100%
Amaranthus retroflexus
  herbicidal activity inhibition ratio (%), Amaranthus retroflexus: 100%
Digitaria sanguinalis
  herbicidal activity inhibition ratio (%), Digitaria sanguinalis: 60%
Echinochloa crusgalli
  herbicidal activity inhibition ratio (%), Echinochloa crusgalli: 80%
Eclipta prostrata
  herbicidal activity inhibition ratio (%), Eclipta prostrata: 70%
Setaria viridis
  herbicidal activity inhibition ratio (%), Setaria viridis: 75%

## CC1CC(=O)C(C(=O)c2ccc3c(c2)c(=O)n(-c2ccc(Br)cc2)c(=O)n3C)=C(O)C1 (stereo not drawn) [Compound 90]
Abutilon theophrasti
  herbicidal activity inhibition ratio (%), Abutilon theophrasti: 92.5%
Amaranthus retroflexus
  herbicidal activity inhibition ratio (%), Amaranthus retroflexus: 20%
Digitaria sanguinalis
  herbicidal activity inhibition ratio (%), Digitaria sanguinalis: 93%
Echinochloa crusgalli
  herbicidal activity inhibition ratio (%), Echinochloa crusgalli: 90%
Eclipta prostrata
  herbicidal activity inhibition ratio (%), Eclipta prostrata: 83%
Setaria viridis
  herbicidal activity inhibition ratio (%), Setaria viridis: 85%

## Cc1c(C(=O)C2=C(O)CCCC2=O)ccc2c1c(=O)n(-c1ccccc1C(F)(F)F)c(=O)n2C [Compound 92, 6-[(2-hydroxy-6-oxo-1-cyclohexenyl)carbonyl]-1,5-dimethyl-3-(2-(trifluoromethyl)phenyl)quinazoline-2,4(1H,3H)-dione]
Abutilon theophrasti
  herbicidal activity inhibition ratio (%), Abutilon theophrasti: 100%
Amaranthus retroflexus
  herbicidal activity inhibition ratio (%), Amaranthus retroflexus: 100%
Digitaria sanguinalis
  herbicidal activity inhibition ratio (%), Digitaria sanguinalis: 100%
Echinochloa crusgalli
  herbicidal activity inhibition ratio (%), Echinochloa crusgalli: 100%
Eclipta prostrata
  herbicidal activity inhibition ratio (%), Eclipta prostrata: 100%
Setaria viridis
  herbicidal activity inhibition ratio (%), Setaria viridis: 100%

## Cc1cccc(C)c1-n1c(=O)c2c(C)c(C(=O)C3=C(O)CCCC3=O)ccc2n(C)c1=O [Compound 93]
Abutilon theophrasti
  herbicidal activity inhibition ratio (%), Abutilon theophrasti: 100%
Amaranthus retroflexus
  herbicidal activity inhibition ratio (%), Amaranthus retroflexus: 100%
Digitaria sanguinalis
  herbicidal activity inhibition ratio (%), Digitaria sanguinalis: 100%
Echinochloa crusgalli
  herbicidal activity inhibition ratio (%), Echinochloa crusgalli: 100%
Eclipta prostrata
  herbicidal activity inhibition ratio (%), Eclipta prostrata: 100%
Setaria viridis
  herbicidal activity inhibition ratio (%), Setaria viridis: 100%

## Cn1c(=O)n(-c2c(Cl)cccc2Cl)c(=O)c2cc(C(=O)C3=C(O)CC(C)(C)CC3=O)ccc21 [Compound 94]
Abutilon theophrasti
  herbicidal activity inhibition ratio (%), Abutilon theophrasti: 95%
Amaranthus retroflexus
  herbicidal activity inhibition ratio (%), Amaranthus retroflexus: 95%
Digitaria sanguinalis
  herbicidal activity inhibition ratio (%), Digitaria sanguinalis: 88%
Echinochloa crusgalli
  herbicidal activity inhibition ratio (%), Echinochloa crusgalli: 93%
Eclipta prostrata
  herbicidal activity inhibition ratio (%), Eclipta prostrata: 98%
Setaria viridis
  herbicidal activity inhibition ratio (%), Setaria viridis: 95%

## Cc1cccc(Cl)c1-n1c(=O)c2cc(C(=O)C3=C(O)CCCC3=O)ccc2n(C)c1=O [Compound 95]
Abutilon theophrasti
  herbicidal activity inhibition ratio (%), Abutilon theophrasti: 100%
Amaranthus retroflexus
  herbicidal activity inhibition ratio (%), Amaranthus retroflexus: 100%
Digitaria sanguinalis
  herbicidal activity inhibition ratio (%), Digitaria sanguinalis: 90%
Echinochloa crusgalli
  herbicidal activity inhibition ratio (%), Echinochloa crusgalli: 100%
Eclipta prostrata
  herbicidal activity inhibition ratio (%), Eclipta prostrata: 70%
Setaria viridis
  herbicidal activity inhibition ratio (%), Setaria viridis: 100%

## Cc1cccc(Cl)c1-n1c(=O)c2cc(C(=O)C3=C(O)CC(C)(C)CC3=O)ccc2n(C)c1=O [Compound 96]
Abutilon theophrasti
  herbicidal activity inhibition ratio (%), Abutilon theophrasti: 95%
Amaranthus retroflexus
  herbicidal activity inhibition ratio (%), Amaranthus retroflexus: 100%
Digitaria sanguinalis
  herbicidal activity inhibition ratio (%), Digitaria sanguinalis: 30%
Echinochloa crusgalli
  herbicidal activity inhibition ratio (%), Echinochloa crusgalli: 55%
Eclipta prostrata
  herbicidal activity inhibition ratio (%), Eclipta prostrata: 83%
Setaria viridis
  herbicidal activity inhibition ratio (%), Setaria viridis: 95%

## CC(C)c1ccccc1-n1c(=O)c2cc(C(=O)C3=C(O)CCCC3=O)ccc2n(C)c1=O [Compound 97]
Abutilon theophrasti
  herbicidal activity inhibition ratio (%), Abutilon theophrasti: 98%
Amaranthus retroflexus
  herbicidal activity inhibition ratio (%), Amaranthus retroflexus: 100%
Digitaria sanguinalis
  herbicidal activity inhibition ratio (%), Digitaria sanguinalis: 50%
Echinochloa crusgalli
  herbicidal activity inhibition ratio (%), Echinochloa crusgalli: 55%
Eclipta prostrata
  herbicidal activity inhibition ratio (%), Eclipta prostrata: 90%
Setaria viridis
  herbicidal activity inhibition ratio (%), Setaria viridis: 50%

## Cc1cccc(C)c1-n1c(=O)c2cc(C(=O)C3=C(O)CC(C)(C)CC3=O)ccc2n(C)c1=O [Compound 98]
Abutilon theophrasti
  herbicidal activity inhibition ratio (%), Abutilon theophrasti: 100%
Amaranthus retroflexus
  herbicidal activity inhibition ratio (%), Amaranthus retroflexus: 100%
Digitaria sanguinalis
  herbicidal activity inhibition ratio (%), Digitaria sanguinalis: 50%
Echinochloa crusgalli
  herbicidal activity inhibition ratio (%), Echinochloa crusgalli: 85%
Eclipta prostrata
  herbicidal activity inhibition ratio (%), Eclipta prostrata: 88%
Setaria viridis
  herbicidal activity inhibition ratio (%), Setaria viridis: 80%
